The Kinase Knowledgebase extract (Sharma et al. 2016)
Several values for one entry are separate records, joined by “and”; a condition that tells them apart may be missing. Equal values may be shown once.

molecular target: PIK3CD (Human) (UniProt O00329); assay: Enzyme Assay
Sequence (O00329 whole entry, looked up): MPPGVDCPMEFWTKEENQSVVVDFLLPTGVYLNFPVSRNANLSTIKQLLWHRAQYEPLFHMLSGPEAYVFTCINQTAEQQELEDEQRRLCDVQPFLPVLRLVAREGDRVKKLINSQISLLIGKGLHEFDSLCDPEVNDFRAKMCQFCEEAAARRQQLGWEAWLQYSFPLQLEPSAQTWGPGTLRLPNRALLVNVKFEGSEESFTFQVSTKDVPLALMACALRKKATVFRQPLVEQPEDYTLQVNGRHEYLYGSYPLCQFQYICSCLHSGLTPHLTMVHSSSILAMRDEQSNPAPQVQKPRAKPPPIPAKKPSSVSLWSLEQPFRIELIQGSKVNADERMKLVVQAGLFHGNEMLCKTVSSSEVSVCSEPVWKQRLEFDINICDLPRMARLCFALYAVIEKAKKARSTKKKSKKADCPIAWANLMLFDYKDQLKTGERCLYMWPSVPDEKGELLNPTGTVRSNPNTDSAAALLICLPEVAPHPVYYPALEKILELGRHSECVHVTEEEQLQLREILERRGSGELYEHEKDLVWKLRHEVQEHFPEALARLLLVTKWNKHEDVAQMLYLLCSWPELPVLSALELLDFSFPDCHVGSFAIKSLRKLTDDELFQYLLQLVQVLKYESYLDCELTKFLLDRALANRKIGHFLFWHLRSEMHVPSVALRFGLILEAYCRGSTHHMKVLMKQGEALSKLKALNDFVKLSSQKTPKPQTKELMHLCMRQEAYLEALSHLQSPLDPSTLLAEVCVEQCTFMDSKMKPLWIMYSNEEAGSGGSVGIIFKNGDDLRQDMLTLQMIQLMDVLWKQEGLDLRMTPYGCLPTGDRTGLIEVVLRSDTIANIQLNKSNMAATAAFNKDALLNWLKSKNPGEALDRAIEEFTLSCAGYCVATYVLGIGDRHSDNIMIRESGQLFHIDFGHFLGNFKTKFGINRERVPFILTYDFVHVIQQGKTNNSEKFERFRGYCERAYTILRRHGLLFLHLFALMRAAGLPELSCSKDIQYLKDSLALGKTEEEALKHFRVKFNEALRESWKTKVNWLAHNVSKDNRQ

Compound | IC50
CCn1c(-c2cnc(C)nc2)nc2c(O[C@H]3CCN(C(=O)OCCCN(C)C)C3)ncnc21 | 37 nM
CCC(=O)N[C@H]1CC[C@H](Oc2ncnc3c2nc(-c2cnc(C)nc2)n3CC)CC1 | 330 nM
CCC(=O)N1CC[C@H](Oc2ncnc3c2nc(-c2cnc(C)nc2)n3CC)C1 | 13 nM
CCC(=O)N1CC[C@H](Oc2ncnc3c2nc(-c2cnn(CC)c2C)n3CC(F)F)C1 | 3.1 nM
CCC(=O)N1CC[C@H](Oc2ncnc3c2nc(CC(C)C)n3CC)C1 | 240 nM
CCn1c(-c2cnc(C)nc2)nc2c(O[C@H]3CCN(C(=O)N4CC(C)(OC)C4)C3)ncnc21 | 34 nM
CCn1c(-c2cnc(C)nc2)nc2c(O[C@H]3CCN(C(=O)C4CC4)[C@@H]3C)ncnc21 | 2.8 nM
CCn1ncc(-c2nc3c(O[C@H]4CCN(C(=O)c5nccn5C)C4)ncnc3n2C)c1C | 35 nM
CCn1c(-c2cnc(C)nc2)nc2c(O[C@H]3CCN(C(=O)C4CC4)C3)ncnc21 | 2.8 nM
CCn1c(N2CCC(c3ccccc3)CC2)nc2c(O[C@H]3CCN(C(=O)OC(C)(C)C)C3)ncnc21 | 120 nM
CCn1c(-c2cnc(OC)c(NS(C)(=O)=O)c2)nc2c(O[C@H]3CCN(C(=O)C4CC4)C3)ncnc21 | < 1 nM
CCn1c(-c2cnc(C)nc2)nc2c(O[C@H]3CCN(C(=O)OC(C)(C)C)C3)ncnc21 | 8.3 nM
CCn1c(-c2cnn3c2CCCC3)nc2c(O[C@H]3CCN(C(=O)C4CC4)C3)ncnc21 | < 1 nM
CCn1ncc(-c2nc3c(O[C@H]4CCN(c5nccn6cnnc56)C4)ncnc3n2C)c1C | 30 nM
CCn1ncc(-c2nc3c(OC4CC(C)N(C(=O)OC(C)(C)C)C4)ncnc3n2C)c1C (configuration not stated) | 1300 nM
CCn1ncc(-c2nc3c(O[C@H]4CCN(C(=O)c5ccncc5)C4)ncnc3n2C)c1C | 13 nM
CCn1ncc(-c2nc3c(O[C@H]4CCN(C(=O)c5ccnn5C(C)C)C4)ncnc3n2C)c1C | 23 nM
CCn1ncc(-c2nc3c(O[C@H]4CCN(C(=O)CN5CCCC5=O)C4)ncnc3n2C)c1C | 480 nM
CCNC(=O)c1nc2c(O[C@H]3CCN(C(=O)OC(C)(C)C)C3)ncnc2n1CC | 310 nM
CCn1ncc(-c2nc3c(O[C@H]4CCN(C(=O)Oc5ccc(C)cc5)C4)ncnc3n2C)c1C | 340 nM
CCn1ncc(-c2nc3c(O[C@H]4CCN(c5ncnc6c5cnn6C)C4)ncnc3n2C)c1C | 120 nM
CCC(=O)N1CC[C@H](Oc2ncnc3c2nc(-c2cnc(OC)c(C)c2)n3CC)C1 | 0.5 nM
CCn1ncc(-c2nc3c(O[C@H]4CCN(C(=O)c5cn(C)nc5C(F)(F)F)C4)ncnc3n2C)c1C | 68 nM

Compound | IC50
CCn1c(N2CCC(S(C)(=O)=O)C2)nc2c(O[C@H]3CCN(C(=O)OC(C)(C)C)C3)ncnc21 (some centres not stated) | 700 nM
CCn1ncc(-c2nc3c(S[C@H]4CCN(c5ncnc6sccc56)C4)ncnc3n2C)c1C | 5.5 nM
CCn1ncc(-c2nc3c(O[C@H]4CCN(C(=O)c5cnoc5C5CC5)C4)ncnc3n2C)c1C | 79 nM
CCn1ncc(-c2nc3c(O[C@@H]4CCCN(C(=O)OC(C)(C)C)C4)ncnc3n2C)c1C | 4600 nM
CCn1c(-c2cnc(C)nc2)nc2c(O[C@H]3CCN(C(=O)C4CC(C)C4)C3)ncnc21 (some centres not stated) | 1.3 nM
CCn1c(-c2cnc(C)nc2)nc2c(O[C@H]3C[C@H](NS(=O)(=O)CC)C3)ncnc21 | 150 nM
CCn1ncc(-c2nc3c(O[C@H]4CCN(C(=O)c5ncoc5C)C4)ncnc3n2C)c1C | 7.2 nM
CCn1ncc(-c2nc3c(O[C@H]4CCN(c5ncnc6sccc56)C4)ncnc3n2C)c1C | 5.7 nM
CCn1c(-c2cnc(C)nc2)nc2c(O[C@H]3CCN(C(=O)C4[C@@H](C)[C@H]4C)C3)ncnc21 (some centres not stated) | 12 nM
CCn1c(-c2cnc(OC)c(C)c2)nc2c(O[C@H]3CCN(C(=O)OC(C)(C)C)C3)ncnc21 | 0.7 nM
Cn1cnc2c(O[C@H]3CCN(C(=O)OC(C)(C)C)C3)ncnc21 | 1400 nM
CCC(=O)N1CC[C@H](S(=O)(=O)c2ncnc3c2nc(-c2cnn(CC)c2C)n3C)C1 | 210 nM
CCn1c(-c2cnc(C)nc2)nc2c(O[C@H]3CCN(C(=O)OCCN(C)C)C3)ncnc21 | 38 nM
CCOC(=O)N1CC[C@H](Sc2ncnc3c2nc(-c2cnn(CC)c2C)n3C)C1 | 37 nM
CCC(=O)N1CC[C@H](Oc2ncnc3c2nc(-c2cnc(C)nc2)n3C)C1 | 36 nM
CCn1ncc(-c2nc3c(OC4CCN(C(=O)C5CCCC5)CC4)ncnc3n2C)c1C | 550 nM
CCn1ncc(-c2nc3c(O[C@H]4CCN(C(=O)c5cnn6cccnc56)C4)ncnc3n2C)c1C | 11 nM
CCn1c(-c2cnn3c2CCCC3)nc2c(O[C@H]3CCN(C(=O)C(C)C)C3)ncnc21 | < 1 nM
CCn1c(-c2cnc(C)nc2)nc2c(O[C@H]3CCN(c4ccccc4)C3)ncnc21 | 9.1 nM
CCn1c(-c2cnc(C)nc2)nc2c(O[C@H]3CCN(C(=O)CC(C)(C)N)C3)ncnc21 | 9.3 nM
CCn1c(-c2cnc(C)nc2)nc2c(O[C@H]3CCN(C(=O)[C@@H]4CCC[C@H]4N)C3)ncnc21 | 39 nM
CCn1ncc(-c2nc3c(O[C@H]4CCN(C(=O)c5ccn[nH]5)C4)ncnc3n2C)c1C | 3 nM
CCn1ncc(-c2nc3c(O[C@H]4CCN(C(=O)c5c(C)noc5C)C4)ncnc3n2C)c1C | 88 nM

Compound | IC50
CCn1ncc(-c2nc3c(O[C@H]4CCN(C(=O)c5c(C)nn(C)c5C)C4)ncnc3n2C)c1C | 74 nM
CCC(=O)N1CC[C@H](Oc2ncnc3c2nc(-c2ccc(OC)c(C(F)(F)F)c2)n3C)C1 | 2.5 nM
CCCn1c(-c2cnn(CC)c2C)nc2c(O[C@H]3CCN(C(=O)CC)C3)ncnc21 | 58 nM
CCn1ncc(-c2nc3c(OC4CCC(C(=O)N5CCOCC5)C4)ncnc3n2C)c1C (configuration not stated) | 220 nM
CCn1c(-c2cnc(C)nc2)nc2c(O[C@H]3CCN(c4nccs4)C3)ncnc21 | 44 nM
CCn1c(-c2ccnc(OC)c2)nc2c(O[C@H]3CCN(C(=O)C4CC4)C3)ncnc21 | 20 nM
CCn1ncc(-c2nc3c(O[C@H]4CCN(C(=O)c5cc(C)[nH]n5)C4)ncnc3n2C)c1C | 28 nM
CCC(=O)N1CC[C@H](Oc2ncnc3c2nc(-c2ccc(Cl)nc2)n3C)C1 | 16 nM
CCn1ncc(-c2nc3c(O[C@H]4CCN(C(=O)Oc5ccccc5)C4)ncnc3n2C)c1C | 90 nM
CCn1ncc(-c2nc3c(O[C@H]4CCN(S(=O)(=O)C(C)C)C4)ncnc3n2C)c1C | 530 nM
CCn1ncc(-c2nc3c(O[C@H]4CCN(C(=O)OCC(C)(C)C)C4)ncnc3n2C)c1C | 28 nM
CCn1ncc(-c2nc3c(O[C@H]4CCN(S(=O)(=O)c5ccccc5)C4)ncnc3n2C)c1C | 360 nM
CCn1c(-c2cnc(C)nc2)nc2c(O[C@H]3CCN(C(=O)C4CNC4)C3)ncnc21 | 70 nM
CCn1ncc(-c2nc3c(O[C@H]4CCN(c5cncc(C)n5)C4)ncnc3n2C)c1C | 26 nM
CCC(=O)N1CC[C@H](Oc2ncnc3c2nc(-c2ccc4[nH]ccc4c2)n3C)C1 | 37 nM
Cn1c(-c2ccc(O)cc2)nc2c(O[C@H]3CCN(C(=O)OC(C)(C)C)C3)ncnc21 | 98 nM
CCn1ncc(-c2nc3c(O[C@H]4CCN(C(=O)c5cnoc5C)C4)ncnc3n2C)c1C | 36 nM
CCn1ncc(-c2nc3c(O[C@H]4CCN(c5cc(-n6cc(C)cn6)ncn5)C4)ncnc3n2C)c1C | 160 nM
CCn1ncc(-c2nc3c(O[C@H]4CCN(C(=O)c5c[nH]nn5)C4)ncnc3n2C)c1C | 12 nM
CCn1ncc(-c2nc3c(O[C@H]4CCN(CC5CCCCC5)C4)ncnc3n2C)c1C | 300 nM
CCn1c(-c2ccc(OC(F)F)nc2)nc2c(O[C@H]3CCN(C(=O)OC(C)(C)C)C3)ncnc21 | 15 nM
CCn1c(-c2cnc(C)nc2)nc2c(O[C@H]3CCN(C(=O)c4ccn(C)n4)C3)ncnc21 | 3 nM
CCC(=O)N1CC[C@H](Oc2ncnc3c2nc(-c2cnc(OC)c(C)c2)n3C)C1 | 2.1 nM

Compound | IC50
CCC(=O)N1CCC(Cc2ncnc3c2nc(-c2cnn(CC)c2C)n3C)C1 (configuration not stated) | 250 nM
CCn1ncc(-c2nc3c(O[C@H]4CCN(C(=O)c5cnn6cc[nH]c56)C4)ncnc3n2C)c1C | 270 nM
CCn1ncc(-c2nc3c(O[C@H]4CCN(C(=O)c5cnoc5C(C)C)C4)ncnc3n2C)c1C | 41 nM
CCn1ncc(-c2nc3c(O[C@H]4CCN(C(=O)c5oncc5C)C4)ncnc3n2C)c1C | 5.1 nM
CCn1ncc(-c2nc3c(O[C@H]4CCN(C(=O)C5CCC5)C4)ncnc3n2C)c1C | 7 nM
CCC(=O)N1CC[C@H](Oc2ncnc3c2nc(-c2cnn(CC)c2C)n3CC)C1 | 0.6 nM
CCCN1CC[C@H](Oc2ncnc3c2nc(-c2cnn(CC)c2C)n3C)C1 | 380 nM
CCC(=O)N1CC[C@H](Oc2ncnc3c2nc(-c2ccc(S(C)(=O)=O)cc2)n3C)C1 | 300 nM
CCn1ncc(-c2nc3c(O[C@H]4CCN(C(=O)C5CCOCC5)C4)ncnc3n2C)c1C | 4.3 nM
CCC(=O)N1CC[C@H](Oc2ncnc3c2nc(-c2cnc(OC)c(NS(C)(=O)=O)c2)n3C)C1 | 2 nM
CCn1c(-c2cnc(C)nc2)nc2c(O[C@H]3CC[C@@H](NC(=O)C4CC4)CC3)ncnc21 | 120 nM
CCC(=O)N1CC[C@H](Oc2ncnc3c2nc(C(F)(F)F)n3CC)C1 | 99 nM
CCC(=O)N1CC[C@H](Oc2ncnc3c2nc(Oc2cc(F)cc(OC)c2)n3C)C1 | 110 nM
CCn1ncc(-c2nc3c(O[C@H]4CCN(C(=O)c5cnn(C)c5)C4)ncnc3n2C)c1C | 14 nM
CCn1c(-c2cnc(C)nc2)nc2c(O[C@H]3CCN(C(=O)c4cocn4)C3)ncnc21 | 14 nM
CCC(=O)N1CC[C@H](Oc2ncnc3c2nc(-c2cnn4c2CCCC4)n3C)C1 | 2.4 nM
CCn1ncc(-c2nc3c(O[C@H]4CCN(C(=O)OCC(C)C)C4)ncnc3n2C)c1C | 17 nM
CCn1c(C(=O)NC2CCCCC2)nc2c(O[C@H]3CCN(C(=O)OC(C)(C)C)C3)ncnc21 | 72 nM
CC[C@@H]1CN(C(=O)C2CC2)C[C@H]1Oc1ncnc2c1nc(-c1cnc(C)nc1)n2CC.CC[C@H]1CN(C(=O)C2CC2)C[C@@H]1Oc1ncnc2c1nc(-c1cnc(C)nc1)n2CC | 6.1 nM and 20 nM
CCn1ncc(-c2nc3c(O[C@@H]4CC[C@H](NC(=O)OC(C)(C)C)C4)ncnc3n2C)c1C | 400 nM
CCn1ncc(-c2nc3c(O[C@H]4CCN(C(=O)Oc5ccc6ccccc6c5)C4)ncnc3n2C)c1C | 110 nM
CCn1c(-c2cnc(C)nc2)nc2c(O[C@H]3CCN(c4cccc(F)c4)C3)ncnc21 | 2.2 nM
CCC(=O)N1CC[C@H](Oc2ncnc3c2nc(-c2cnc(OC)c(C#N)c2)n3C)C1 | 8.4 nM
